Molecular target: T1, PARP-1 (Homo sapiens, UniProt P09874)
T1 construct: His10; made in house; host or cells: E. coli BL21(DE3) (inferred)
Assay: PARP-1 enzyme kinetics assay (LC-HPLC of nicotinamide formation)
Format: biochemical
Conditions: 250 nM PARP-1, 10-500 μM analog; data not shown
Procedure: The enzyme kinetics of wild-type and analog-sensitive mutants of human PARP-1 were determined essentially as previously described (Jiang et al., 2010). Purified PARP-1 proteins were incubated for 5 minutes in PARP Enzyme Kinetics Buffer (50 mM Tris.HCl, pH 7.9, 4 mM MgCl2) containing 0.5 mg/mL sonicated salmon sperm DNA (Stratagene) at 25° C. with 10, 20, 30, 50, 100, 250, and 500 μM NAD^+ or 8-Bu(3-yne)T-NAD^+. The concentrations of the purified PARP-1 proteins were (1) 25 nM for PARP-1 with NAD^+, (2) 50 nM for PARP-1(L877A) with NAD^+, and […] 250 nM for PARP-1 and PARP-1(L877A) with 8-bu(3-yne)T-NAD^+. The reactions were brought to 450 mM perchloric acid (HClO4) to stop them, incubated for 5 minutes on ice, and then brought to […] potassium carbonate (K2CO3) to quench them. The quenched reactions were centrifuged at maximum speed in a microcentrifuge at 4° C., and the supernatant containing small molecules from the automodification reaction was collected.
The supernatants from the extracted ADP-ribosylation reactions were analyzed using a Shimadzu LCMS-QP8000α with a Phenomenex Kinetex C18 column (150×4.6 mm, 5 μm XB-C18 100A) monitored at 260 nm. […] Quantitative values for the small molecules and metabolites were obtained by comparison to a standard curve. […]

T1 sequence (P09874 whole entry): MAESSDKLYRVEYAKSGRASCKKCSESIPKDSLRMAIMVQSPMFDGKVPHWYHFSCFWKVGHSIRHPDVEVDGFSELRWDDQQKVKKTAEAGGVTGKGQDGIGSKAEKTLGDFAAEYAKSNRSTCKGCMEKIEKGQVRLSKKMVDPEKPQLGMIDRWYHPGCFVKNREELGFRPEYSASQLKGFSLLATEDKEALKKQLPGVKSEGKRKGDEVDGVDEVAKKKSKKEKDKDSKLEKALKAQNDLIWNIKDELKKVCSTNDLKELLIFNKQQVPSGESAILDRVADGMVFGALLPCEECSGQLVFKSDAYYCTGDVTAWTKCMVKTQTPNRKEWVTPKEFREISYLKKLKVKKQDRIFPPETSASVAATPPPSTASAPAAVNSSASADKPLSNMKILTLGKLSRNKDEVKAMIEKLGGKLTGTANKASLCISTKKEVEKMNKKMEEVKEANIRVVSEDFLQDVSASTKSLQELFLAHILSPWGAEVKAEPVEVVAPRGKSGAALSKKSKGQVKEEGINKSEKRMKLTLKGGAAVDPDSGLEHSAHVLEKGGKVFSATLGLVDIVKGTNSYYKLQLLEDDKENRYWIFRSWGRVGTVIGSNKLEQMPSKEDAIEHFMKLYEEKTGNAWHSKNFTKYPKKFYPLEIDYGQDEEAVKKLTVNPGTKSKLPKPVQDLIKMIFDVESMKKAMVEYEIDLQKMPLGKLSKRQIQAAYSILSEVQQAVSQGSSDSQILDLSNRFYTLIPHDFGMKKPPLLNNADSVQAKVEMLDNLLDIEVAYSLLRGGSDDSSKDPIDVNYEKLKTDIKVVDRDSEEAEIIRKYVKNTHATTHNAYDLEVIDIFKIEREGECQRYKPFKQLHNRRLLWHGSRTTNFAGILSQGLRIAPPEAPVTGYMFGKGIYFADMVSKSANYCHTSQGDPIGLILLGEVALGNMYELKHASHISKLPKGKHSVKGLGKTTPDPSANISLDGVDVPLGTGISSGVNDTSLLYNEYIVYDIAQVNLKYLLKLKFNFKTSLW

C#CCCSc1nc2c(N)ncnc2n1[C@@H]1O[C@H](COP(=O)(O)OP(=O)(O)OC[C@H]2O[C@@H]([n+]3cccc(C(N)=O)c3)C(O)C2O)[C@H](O)C1O (stereo partly shown) [8-Bu(3-yne)T-NAD^+]
saturation of PARylation activity: No saturation was detectable
